Results as given in patent publication US20220339135A1, “COMPOSITIONS AND METHODS FOR MODULATING AN INFLAMMATORY RESPONSE” (Enzychem Lifesciences Corporation, priority 2019, published 2022).

Key:
NETosis of dHL-60 cells = assay: IMQ-induced NETosis, confocal microscopy of DNA-elastase complex; format: cell-based, human; details: PLAG 10 or 100 μg/mL, dose-dependent
Protocol: HL-60 cells were differentiated (dHL-60) to neutrophil-like cells in the culture medium with the addition of 1.3% DMSO (Sigma) for 5 days in a humidified atmosphere at 37° C. without changing the medium. dHL-60 cells (2×10^5 cells/mL) were loaded with 5 μM fluo-4 AM for 45 minutes and washed three times with warmed modified (37° C.) HBSS buffer (137.93 mM NaCl, 5.33 mM KCl, 2 mM CaCl2, 1 mM MgSO4, 2.38 mM HEPES, 5.5 mM glucose, pH to 7.4). The cells were seeded on black-walled 96-well plates and then treated with vehicle (0.1% DMSO), imiquimod (10 μg/mL) or PLAG (10 or 100 μg/mL) just before measurement. Baseline fluorescence was measured before treatment, and fluorescence was read every 20 s for 700 s using an excitation wavelength of 494 nm, an emission wavelength of 516 nm in a FlexStation 3 microplate reader (Molecular Devices). Fluorescence values were reported as F/Fo according to the calculation: [ΔF=(494 nm)f/(516 nm)f−(494 nm)0/(516 nm)0]. […]
HL-60 cells were harvested and detected extracellular DNA-elastase complex by using ELISA and visualized by using confocal microscopy (×400) or scanning electron microscope (SEM) (×8000). HL-60 cells were washed with PBS and mounted in DAPI-containing fluorescence microscopy mounting medium (Invitrogen). Samples were analyzed with a laser scanning confocal microscope (Carl Zeiss, Oberkochen, Germany).

[1] = tested on: ADORA2A on the surface of HaCaT cells; assay: IMQ-induced ADORA2A trafficking, confocal microscopy; format: cell-based; details: IMQ 5 μg/ml after PLAG 100 μg/ml 1 hour
Protocol: HaCaT cells were divided into two groups: 1) IMQ treated group and 2) IMQ/PLAG treated group. For IMQ treated group, cells were stimulated with IMQ (5 μg/ml) for 0, 2.5, 5, 7.5, 10, 15, 30, 60, 120 minutes. For IMQ/PLAG treated group, cells were pre-incubated with PLAG (100 μg/ml) for 1 hour and then stimulated with IMQ (5 μg/ml) for 0, 2.5, 5, 7.5, 10, 15, 30, 60, 120 minutes. (A) To detect ADORA2A on the membrane surface, cells were fixed with 2% paraformaldehyde (Sigma-Aldrich) and were blocked with PBS containing 1% BSA (Gibco, Waltham, Mass., USA). They were incubated with rabbit anti-ADORA2A antibody (Thermo) and Alexa488 conjugated anti-rabbit IgG (Invitrogen) without permeabilization. (B) To detect intracellular ROS, cells were treated with FITC conjugated-CM-H2DCFDA (Invitrogen, Carlsbad, Calif., USA) for 30 min before PLAG treating. For confocal microscopy analysis, cells were washed with PBS and mounted in DAPI-containing fluorescence microscopy mounting medium (Invitrogen). Samples were analyzed with a laser scanning confocal microscope (Carl Zeiss, Oberkochen, Germany).

[2] = tested on: citrullinated histone H3 in dHL-60 cells; assay: Histone H3 citrullination, western blot; format: cell-based, human; details: time-dependent
Protocol: dHL-60 cells were lysed on ice for 30 minutes in RIPA buffer composed of 50 mM Tris-HCl (pH 7.4), 150 mM NaCl, 2 mM EDTA, 1% NP-40, 0.5% sodium deoxycholate, 0.1% SDS, 1 mM phenylmethylsulfonyl fluoride (PMSF), 10 mM sodium fluoride, 2 mM sodium pyrophosphate, 10 mM β-glycerophosphate, 10 mM sodium orthovanadate. The lysates were centrifuged at 13,000 rpm for 20 minutes at 4° C. and protein concentrations were determined using the Bradford assay (Bio-Rad Laboratories). Denatured samples were mixed with a 5×SDS-PAGE loading buffer and heated to 100° C. for 15 min. The samples were separated on the 10% of SDS-PAGE gel and transferred to polyvinylidene difluoride (PVDF) membranes (Merck Millipore Corporation, MA, USA). Membranes were blocked with 5% non-fat milk in PBS (10 mM Tris-HCl, pH7.5, 150 mM NaCl) for 1 h and probed with primary antibodies against histone H3 (citrulline R2+R8+R17) from abcam (USA) and β-actin from cell signaling (USA) for overnight at 4° C. The blots were washed and incubated with appropriate secondary antibodies and visualized using Pierce™ ECL Western Blotting Substrate (Thermo Scientific).

[3] = tested on: p47phox in Raw264.7 cells; assay: LPS-induced p47phox recruitment; format: cell-based; details: LPS/PLAG treatment
Protocol: Raw264.7 cells were divided into two groups: 1) LPS treated group and 2) LPS/PLAG treated group. For the LPS treated group, cells were treated with 100 μg/ml of DMSO (as solvent control) for 1 hour and treated with LPS (100 ng/ml) for 15, 30, 60, and 120 minutes. For LPS/PLAG treated group, cells were treated with PLAG (100 μg/ml) for 1 hour and treated with LPS (100 ng/ml) for 15, 30, 60, and 120 minutes. Cells were then fixed and stained using rat anti-TLR4/MD2 antibody with Alexa488-conjugated anti-rat IgG secondary antibody. These were analyzed by confocal microscopy. Raw264.7 cells stimulated under the same conditions were fixed, permeabilized, and stained with CM-H2DCFDA, the LYSO-ID® Lysosomal Detection Kit and rabbit anti-p47phox. Confocal microscopy was performed; all data shown represent one experiment performed in triplicate.

CCCCC/C=C\C/C=C\CCCCCCCC(=O)OC(COC(C)=O)COC(=O)CCCCCCCCCCCCCCC (racemic) [PLAG, 1-palmitoyl-2-linoleoyl-3-acetylglycerol]
IMQ-induced NETosis (NETosis of dHL-60 cells): promotes
GPCR (ADORA2A) returns to its membrane [1]: 10 min
GPCR (ADORA2A) trafficking starts [1]: 2.5 min
histone H3 citrullination [2]: induced
p47phox recruitment initiated [3]: 15 min
return to homeostatic levels of p47phox [3]: 60 min
